The NIST ThermoML archive (doi:10.1021/je6005778)

Conditions: Liquid; for speed of sound: Pulse-echo method

CCC(O)CO (stereo unspecified) [1,2-butanediol]
Conditions | mass density [kg/m3] | speed of sound [m/s]
288.15 K, 101.33 kPa | 1005.78 | –
292.87 K, 45600 kPa | – | 1634.3
292.87 K, 60790 kPa | – | 1681.5
292.87 K, 75990 kPa | – | 1726
292.87 K, 91190 kPa | – | 1768
292.87 K, 101320 kPa | – | 1794.7
292.88 K, 15200 kPa | – | 1528.2
292.88 K, 30400 kPa | – | 1583.2
292.93 K, 101.33 kPa | – | 1466.5
293.15 K, 101.33 kPa | 1002.12 | –
298.1 K, 101.33 kPa | – | 1451.3
298.15 K, 101.33 kPa | 998.408 | –
298.15 K, 15200 kPa | – | 1513.5
298.15 K, 30400 kPa | – | 1569.2
298.15 K, 45600 kPa | – | 1621.1
298.15 K, 60790 kPa | – | 1668.8
298.15 K, 75990 kPa | – | 1713.8
298.15 K, 91190 kPa | – | 1755.9
298.15 K, 101320 kPa | – | 1783
303.13 K, 15200 kPa | – | 1500
303.13 K, 30400 kPa | – | 1556.4
303.13 K, 45600 kPa | – | 1608.8
303.13 K, 60790 kPa | – | 1657.1
303.13 K, 75990 kPa | – | 1702.2
303.13 K, 91190 kPa | – | 1745
303.13 K, 101320 kPa | – | 1772.3
303.15 K, 101.33 kPa | 994.659 | –
303.18 K, 101.33 kPa | – | 1436.5
308.12 K, 60790 kPa | – | 1645.5
308.12 K, 91190 kPa | – | 1734.2
308.13 K, 15200 kPa | – | 1486.6
308.13 K, 30400 kPa | – | 1543.5
308.13 K, 45600 kPa | – | 1596.5
308.13 K, 75990 kPa | – | 1691
308.13 K, 101320 kPa | – | 1761.7
308.15 K, 101.33 kPa | 990.872 | –
308.17 K, 101.33 kPa | – | 1421.8
313.15 K, 101.33 kPa | 987.048 | –
313.3 K, 30400 kPa | – | 1530.3
313.3 K, 45600 kPa | – | 1583.7
313.3 K, 60790 kPa | – | 1633.4
313.3 K, 75990 kPa | – | 1679.3
313.3 K, 91190 kPa | – | 1723
313.3 K, 101320 kPa | – | 1750.4
313.31 K, 15200 kPa | – | 1472.8
313.35 K, 101.33 kPa | – | 1406.7
318.15 K, 101.33 kPa | 983.185 | 1392.6
323.15 K, 101.33 kPa | 979.285 | –
328.15 K, 101.33 kPa | 975.354 | –
333.15 K, 101.33 kPa | 971.386 | –
338.16 K, 101.33 kPa | 967.378 | –
343.15 K, 101.33 kPa | 963.333 | –
348.16 K, 101.33 kPa | 959.256 | –
353.15 K, 101.33 kPa | 955.143 | –
358.15 K, 101.33 kPa | 950.989 | –
363.15 K, 101.33 kPa | 946.804 | –

CC(O)CCO (stereo unspecified) [1,3-butanediol]
Conditions | mass density [kg/m3] | speed of sound [m/s]
288.15 K, 101.33 kPa | 1006.75 | –
292.86 K, 45590 kPa | – | 1686.5
292.86 K, 75990 kPa | – | 1770.1
292.86 K, 91180 kPa | – | 1808.7
292.86 K, 101320 kPa | – | 1833.6
292.87 K, 15200 kPa | – | 1592.1
292.87 K, 30390 kPa | – | 1641
292.87 K, 60790 kPa | – | 1729.5
292.92 K, 101.33 kPa | – | 1537.7
293.15 K, 101.33 kPa | 1003.52 | –
298.15 K, 101.33 kPa | 1000.23 | –
298.15 K, 15200 kPa | – | 1578.4
298.15 K, 30390 kPa | – | 1628
298.15 K, 45590 kPa | – | 1673.8
298.15 K, 60790 kPa | – | 1717.4
298.15 K, 75990 kPa | – | 1758.3
298.15 K, 91180 kPa | – | 1797.3
298.15 K, 101320 kPa | – | 1822.1
298.2 K, 101.33 kPa | – | 1523.3
303.13 K, 15200 kPa | – | 1565.3
303.13 K, 30390 kPa | – | 1615.9
303.13 K, 45590 kPa | – | 1662.2
303.13 K, 60790 kPa | – | 1706
303.13 K, 75990 kPa | – | 1747.3
303.13 K, 91180 kPa | – | 1786.7
303.13 K, 101320 kPa | – | 1811.6
303.15 K, 101.33 kPa | 996.895 | –
303.17 K, 101.33 kPa | – | 1509.7
308.11 K, 101320 kPa | – | 1801.7
308.12 K, 45590 kPa | – | 1650.6
308.12 K, 75990 kPa | – | 1736.7
308.13 K, 15200 kPa | – | 1552.4
308.13 K, 30390 kPa | – | 1603.5
308.13 K, 60790 kPa | – | 1694.6
308.13 K, 91180 kPa | – | 1776.3
308.15 K, 101.33 kPa | 993.524 | –
308.16 K, 101.33 kPa | – | 1496
313.11 K, 15200 kPa | – | 1539.6
313.11 K, 30390 kPa | – | 1591.2
313.11 K, 45590 kPa | – | 1639.1
313.11 K, 60790 kPa | – | 1683.6
313.11 K, 75990 kPa | – | 1725.9
313.11 K, 91180 kPa | – | 1765.9
313.11 K, 101320 kPa | – | 1791.5
313.14 K, 101.33 kPa | – | 1482.3
313.15 K, 101.33 kPa | 990.116 | –
318.16 K, 101.33 kPa | 986.665 | –
318.29 K, 15200 kPa | – | 1526.2
318.29 K, 30390 kPa | – | 1578.4
318.29 K, 45590 kPa | – | 1627
318.29 K, 60790 kPa | – | 1672
318.29 K, 75990 kPa | – | 1714.8
318.29 K, 91180 kPa | – | 1755.2
318.29 K, 101320 kPa | – | 1781.1
318.32 K, 101.33 kPa | – | 1467.9
323.15 K, 101.33 kPa | 983.181 | –
328.16 K, 101.33 kPa | 979.654 | –
333.16 K, 101.33 kPa | 976.087 | –
338.15 K, 101.33 kPa | 972.476 | –
343.15 K, 101.33 kPa | 968.825 | –
348.16 K, 101.33 kPa | 965.14 | –
353.15 K, 101.33 kPa | 961.411 | –
358.15 K, 101.33 kPa | 957.637 | –
363.15 K, 101.33 kPa | 953.825 | –
